From US7732429B2 (Trustees of Tufts College, priority 1994, dated 2010)
Values after ≈ are worked out from the molar mass of the structure shown. Where two headings read alike, the source gives them in different places.

Legend:
[1] = target: T1, efflux protein (Escherichia coli, UniProt P02980); experiment: everted membrane vesicle assay, blocking activity of 13-S-derivatives; assay type: biochemical
T1 sequence (P02980 1-401): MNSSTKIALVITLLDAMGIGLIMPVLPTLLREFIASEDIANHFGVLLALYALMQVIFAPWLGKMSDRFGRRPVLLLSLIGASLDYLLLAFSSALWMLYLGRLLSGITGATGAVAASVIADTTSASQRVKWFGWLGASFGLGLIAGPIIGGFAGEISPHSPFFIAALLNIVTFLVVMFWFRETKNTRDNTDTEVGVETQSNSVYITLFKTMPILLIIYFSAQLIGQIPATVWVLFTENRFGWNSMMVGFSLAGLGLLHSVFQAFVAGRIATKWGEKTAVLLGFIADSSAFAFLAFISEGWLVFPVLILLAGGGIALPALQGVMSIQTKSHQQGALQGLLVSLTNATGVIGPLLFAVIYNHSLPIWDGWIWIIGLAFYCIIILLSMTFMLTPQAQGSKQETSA

[2] = system: E. coli Tc^s (MI 308-226); experiment: susceptibility testing MIC/MLC, drug alone; assay type: cell-based; conditions: for MLC: kills 99.9%
[3] = system: E. coli Class A Tc^r (DI-299); assay type: cell-based; conditions: drug alone; for MLC: kills 99.9%
[4] = system: E. coli Class B Tc^r (DI-209); assay type: cell-based; conditions: drug alone; for MLC: kills 99.9%
[5] = system: S. aureus Tc^r (RN4250); assay type: cell-based
[6] = system: E. faecalis Tc^s (ATCC9790r); experiment: susceptibility testing MIC/MLC, drug alone; assay type: cell-based
[7] = system: E. faecalis Tc^r (L) ATCC9790r/Tell.); experiment: susceptibility testing MIC/MLC, drug alone; assay type: cell-based
[8] = system: E. faecalis Tc^r(M) (ATCC09790r/TelM); assay type: cell-based; conditions: drug alone; for MLC: kills 99.9%
[9] = system: tetracycline resistant S. aureus; conditions: in combination with tetracycline
[10] = system: E. faecalis (Class M); conditions: result in words
[11] = system: tetracycline resistant (Class A) E. coli (strain D1-299); conditions: in combination with tetracycline
[12] = system: E. coli ML308; experiment: susceptibility of tetracycline susceptible strains (MIC), C5 esters; assay type: cell-based; conditions: E. coli ML308, susceptible strain, drug alone
[13] = system: S. aureus 450; experiment: as above; assay type: cell-based; conditions: S. aureus 450, susceptible strain, drug alone
[14] = system: E. faecalis ATCC 9790; experiment: as above; assay type: cell-based; conditions: E. faecalis ATCC 9790, susceptible strain, drug alone
[15] = system: E. coli DI-299 (Tet A); experiment: MIC/MLC chart, analog with and without doxycycline; assay type: cell-based; design: key to growth/killing, Analog + Doxy / growth/killing, Doxy Control / growth/killing, Analog Control / growth in MIC/MLC chart: +=growth; 0=no growth (MIC); ↓=killing; ? =99.9% killing (MLC); □=no growth, but no microbiologic testing;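 note: bacterial growth inhibition and killing in broth, each agent tested alone or combined with doxycycline across two-fold serial dilutions, overnight incubation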
[16] = system: E. faecalis 211 (Tet M); experiment: MIC/MLC chart, analog with and without doxycycline; assay type: cell-based
[17] = Tc^r(RN4250), drug alone, kills 99.9%
[18] = E. faecalis bearing the Tet L determinant
[19] = Tc^r (L) ATCC9790r/Tell.), drug alone
[20] = Tc^r (L) ATCC9790r/Tell.), drug alone, kills 99.9%
[21] = Analog Control: analog alone .195 μg/ml
[22] = analog .195 μg/ml + doxycycline 1.56 μg/ml
[23] = analog .195 μg/ml + doxycycline 3.12 μg/ml
[24] = analog .195 μg/ml + doxycycline 6.25 μg/ml

## CN(C)C1C(O)=C(C(N)=O)C(=O)C2(O)C(O)=C3C(=O)c4c(O)cccc4C(CSCc4ccccc4)C3C(O)C12 (stereo not shown) [Benzyl, 6-deoxy-13-(benzylmercapto) tetracycline]
[1]
  Ki: 1.59 µM
[2]; Tc^s (MI 308-226), drug alone
  MIC: 16 ± 5 µg
  MLC: 25 ± 6 µg
[3]
  MIC: 45 ± 20 µg
  MLC: 150 ± 50 µg
[4]
  MIC: 30 ± 0.25 µg
  MLC: 90 ± 10 µg
[5]; Tc^r(RN4250), drug alone
  MIC: 1 ± 0.25 µg
[5]; [17]
  MLC: 10 ± 4 µg
[6]
  MIC: 0.5 ± 0.25 µg
[7]; [18]
  MLC: 8 ± 2 µg/mL (≈ 14.1 µM)
[7]; [19]
  MIC: 0.75 ± 0.25 µg
[7]; [20]
  MLC: 8 ± 2 µg
[8]
  MIC: 3.5 ± 1 µg
  MLC: 18 ± 2 µg
[9]
  combined dose of the two drugs to achieve MLC: ≤ 6 µg/mL
[10]
  synergistic activity with tetracycline: little, if any synergistic activity

## CN(C)C1C(O)=C(C(N)=O)C(=O)C2(O)C(O)=C3C(=O)c4c(O)cccc4C(CSC4CCCC4)C3C(O)C12 (stereo not drawn) [Cyclopentyl, 13-cyclopentylthio-5-hydroxy-6-α-deoxy-tetracycline]
[1]
  Ki: 0.367 µM
[2]; Tc^s (MI 308-226), drug alone
  MIC: 20 µg
  MLC: 60 µg
[3]
  MIC: 40 ± 0.25 µg
  MLC: 80 µg
[4]
  MIC: 80 ± 40 µg
  MLC: 100 ± 60 µg
[5]; Tc^r(RN4250), drug alone
  MIC: 2 ± 0.25 µg
[5]; [17]
  MLC: 6 ± 2 µg
[5]; resistant S. aureus
  MLC: 6 ± 2 µg/mL (≈ 11 µM)
[6]
  MIC: 1 ± 0.25 µg
[7]; [19]
  MIC: 1 ± 0.5 µg
[7]; [20]
  MLC: 18 ± 2 µg
[8]
  MIC: 3 ± 1 µg
  MLC: >16 µg
[11]
  concentrations of analogue and tetracycline that inhibited growth: ≤ 5 μg/ml
[9]
  combined dose of the two drugs to achieve MLC: ≤ 6 µg/mL
[10]
  synergistic activity with tetracycline: little, if any synergistic activity

## CN(C)C1C(O)=C(C(N)=O)C(=O)C2(O)C(O)=C3C(=O)c4c(O)cccc4C(CSC4CCCCC4)C3C(O)C12 (stereo not shown) [Cyclohexyl]
[1]
  Ki: 0.716 µM
[2]; Tc^s (MI 308-226), drug alone
  MIC: 60 ± 10 µg
  MLC: 120 µg
[3]
  MIC: 100 ± 0.26 µg
  MLC: >200 µg
[5]; Tc^r(RN4250), drug alone
  MIC: 1.5 ± 0.5 µg
[5]; [17]
  MLC: 10 ± 4 µg
[6]
  MIC: 1.25 ± 0.25 µg
[7]; [18]
  MLC: 8 ± 2 µg/mL (≈ 14.3 µM)
[7]; [19]
  MIC: 1.5 ± 0.5 µg
[7]; [20]
  MLC: 8 ± 2 µg
[8]
  MIC: 2.5 ± 0.5 µg
  MLC: 10 ± 0.25 µg
[11]
  concentrations of analogue and tetracycline that inhibited growth: ≤ 5 μg/ml
[9]
  combined dose of the two drugs to achieve MLC: ≤ 6 µg/mL
[10]
  synergistic activity with tetracycline: little, if any synergistic activity

## CCSCC1c2cccc(O)c2C(=O)C2=C(O)C3(O)C(=O)C(C(N)=O)=C(O)C(N(C)C)C3CC21 (stereo not shown) [Ethyl, 6-deoxy-13-(ethylmercapto) tetracycline]
[2]; Tc^s (MI 308-226), drug alone
  MIC: 5 ± 0.25 µg
  MLC: 50 µg
[2]; susceptible E. coli
  MIC: 5 µg/mL (≈ 10.2 µM)
[3]
  MIC: 14 ± 4 µg
  MLC: 45 ± 5 µg
[4]
  MIC: 36 ± 16 µg
  MLC: 50 ± 10 µg
[6]
  MIC: 1 ± 0.5 µg
[7]; [19]
  MIC: 4 ± 1 µg
[8]
  MIC: 25 ± 5 µg
[11]
  concentrations of analogue and tetracycline that inhibited growth: ≤ 5 μg/ml

## CCCSCC1c2cccc(O)c2C(=O)C2=C(O)C3(O)C(=O)C(C(N)=O)=C(O)C(N(C)C)C3C(OC(=O)CC)C21 (stereo not shown) [Cmpd 8, 13-propylthio-5-proprionate-6-deoxy-tetracycline]
[12]
  MIC: 20 µg/mL (≈ 34.8 µM)
[13]
  MIC: .3 µg/mL (≈ 0.522 µM)
[14]
  MIC: 2.5 µg/mL (≈ 4.35 µM)

## CCC(=O)OC1C2C(=C(O)C3(O)C(=O)C(C(N)=O)=C(O)C(N(C)C)C13)C(=O)c1c(O)cccc1C2CSC1CCCC1 (stereo not shown) [Cmpd 5, 13-cyclopentylthio-5-proprionate-6-deoxy tetracycline]
[12]
  MIC: 20 µg/mL (≈ 33.3 µM)
[13]
  MIC: .4 µg/mL (≈ 0.666 µM)
[14]
  MIC: .4 µg/mL (≈ 0.666 µM)
[15]; Analog Control: analog alone 1.56 μg/ml
  growth in MIC/MLC chart: +
[15]; Analog Control: analog alone 3.12 μg/ml
  growth in MIC/MLC chart: +
[15]; Analog Control: analog alone 6.25 μg/ml
  growth in MIC/MLC chart: +
[15]; Analog Control: analog alone 12.5 μg/ml
  growth in MIC/MLC chart: +
[15]; Analog Control: analog alone 25.0 μg/ml
  growth in MIC/MLC chart: +
[15]; Analog Control: analog alone 50.00 μg/ml
  growth in MIC/MLC chart: +
[15]; [21]
  growth in MIC/MLC chart: +
[15]; Analog Control: analog alone .39 μg/ml
  growth in MIC/MLC chart: +
[15]; Analog Control: analog alone .78 μg/ml
  growth in MIC/MLC chart: +
[15]; analog 1.56 μg/ml + doxycycline 1.55 μg/ml
  growth in MIC/MLC chart: +
[15]; analog 1.56 μg/ml + doxycycline 3.1 μg/ml
  growth in MIC/MLC chart: +
[15]; analog 1.56 μg/ml + doxycycline 6.2 μg/ml
  growth in MIC/MLC chart: +
[15]; analog 3.12 μg/ml + doxycycline 1.53 μg/ml
  growth in MIC/MLC chart: +
[15]; analog 3.12 μg/ml + doxycycline 3.05 μg/ml
  growth in MIC/MLC chart: +
[15]; analog 3.12 μg/ml + doxycycline 6.1 μg/ml
  growth in MIC/MLC chart: +
[15]; analog 6.25 μg/ml + doxycycline 3.0 μg/ml
  growth in MIC/MLC chart: +
[15]; analog 6.25 μg/ml + doxycycline […]
  growth in MIC/MLC chart: +
[15]; analog 12.5 μg/ml + doxycycline 2.8 μg/ml
  growth in MIC/MLC chart: +
[15]; analog 12.5 μg/ml + doxycycline […]
  growth in MIC/MLC chart: +
[15]; analog 25 μg/ml + doxycycline 2.4 μg/ml
  growth in MIC/MLC chart: +
[15]; analog 25 μg/ml + doxycycline […]
  growth in MIC/MLC chart: +
[15]; analog 50 μg/ml + doxycycline 1.56 μg/ml
  growth in MIC/MLC chart: +
[15]; analog 50 μg/ml + doxycycline .78 μg/ml
  growth in MIC/MLC chart: +
[15]; [22]
  growth in MIC/MLC chart: +
[15]; [23]
  growth in MIC/MLC chart: +
[15]; [24]
  growth in MIC/MLC chart: +
[15]; analog .195 μg/ml + doxycycline 12.5 μg/ml
  growth in MIC/MLC chart: +
[15]; analog .195 μg/ml + doxycycline 25.0 μg/ml
  growth in MIC/MLC chart: +
[15]; analog .39 μg/ml + doxycycline 1.56 μg/ml
  growth in MIC/MLC chart: +
[15]; analog .39 μg/ml + doxycycline 3.12 μg/ml
  growth in MIC/MLC chart: +
[15]; analog .39 μg/ml + doxycycline 6.25 μg/ml
  growth in MIC/MLC chart: +
[15]; analog .39 μg/ml + doxycycline 12.5 μg/ml
  growth in MIC/MLC chart: +
[15]; analog .39 μg/ml + doxycycline 24.9 μg/ml
  growth in MIC/MLC chart: ↓
[15]; analog .78 μg/ml + doxycycline 1.56 μg/ml
  growth in MIC/MLC chart: +
[15]; analog .78 μg/ml + doxycycline 3.12 μg/ml
  growth in MIC/MLC chart: +
[15]; analog .78 μg/ml + doxycycline 6.23 μg/ml
  growth in MIC/MLC chart: +
[15]; with 5.9 μg/ml of doxycycline (Chart 8A)
  MLC of analog in combination: 6.25 μg/ml
[16]; [21]
  growth in MIC/MLC chart: +
[16]; [22]
  growth in MIC/MLC chart: +
[16]; [23]
  growth in MIC/MLC chart: +
[16]; [24]
  growth in MIC/MLC chart: +
